Measured values as given in ChEMBL document CHEMBL3784918, “Novel 2,4-diaminopyrimidines bearing tetrahydronaphthalenyl moiety against anaplastic lymphoma kinase (ALK): Synthesis, in vitro, ex vivo, and in vivo efficacy studies” (Bioorg Med Chem Lett, 2016).
The source made the active and inactive calls. The rule behind the calls is not given here.

What was measured:
[1] = tested on: BaF3; assay: Inhibition of ALK L1196M mutant in mouse BA/F3 cells assessed as inhibition of cell proliferation after 72 hrs by WST1 assay; assay type: cell-based
[2] = target: ALK tyrosine kinase receptor (Homo sapiens, UniProt Q9UM73); assay: Inhibition of wild type ALK (unknown origin) after 30 mins by HTRF assay
[3] = target: EML4-ALK (Homo sapiens) (UniProt Q9UM73+Q9HC35); assay: Inhibition of EML4-ALK in human NCI-H3122 cells assessed as inhibition of cell proliferation after 72 hrs by SRB assay; assay type: cell-based
[4] = target: ALK tyrosine kinase receptor (Homo sapiens, UniProt Q9UM73, L1196M); assay: Inhibition of ALK L1196M mutant (unknown origin) after 30 mins by HTRF assay
[5] = tested on: NCI-H3122; assay: Antitumor activity against human NCI-H3122 cells xenografted in SCID mouse assessed as tumor growth inhibition at 50 mg/kg, po administered qd for 14 days; assay type: functional, organism-based

EML4-ALK (Homo sapiens), sequence (Q9HC35 whole entry partner): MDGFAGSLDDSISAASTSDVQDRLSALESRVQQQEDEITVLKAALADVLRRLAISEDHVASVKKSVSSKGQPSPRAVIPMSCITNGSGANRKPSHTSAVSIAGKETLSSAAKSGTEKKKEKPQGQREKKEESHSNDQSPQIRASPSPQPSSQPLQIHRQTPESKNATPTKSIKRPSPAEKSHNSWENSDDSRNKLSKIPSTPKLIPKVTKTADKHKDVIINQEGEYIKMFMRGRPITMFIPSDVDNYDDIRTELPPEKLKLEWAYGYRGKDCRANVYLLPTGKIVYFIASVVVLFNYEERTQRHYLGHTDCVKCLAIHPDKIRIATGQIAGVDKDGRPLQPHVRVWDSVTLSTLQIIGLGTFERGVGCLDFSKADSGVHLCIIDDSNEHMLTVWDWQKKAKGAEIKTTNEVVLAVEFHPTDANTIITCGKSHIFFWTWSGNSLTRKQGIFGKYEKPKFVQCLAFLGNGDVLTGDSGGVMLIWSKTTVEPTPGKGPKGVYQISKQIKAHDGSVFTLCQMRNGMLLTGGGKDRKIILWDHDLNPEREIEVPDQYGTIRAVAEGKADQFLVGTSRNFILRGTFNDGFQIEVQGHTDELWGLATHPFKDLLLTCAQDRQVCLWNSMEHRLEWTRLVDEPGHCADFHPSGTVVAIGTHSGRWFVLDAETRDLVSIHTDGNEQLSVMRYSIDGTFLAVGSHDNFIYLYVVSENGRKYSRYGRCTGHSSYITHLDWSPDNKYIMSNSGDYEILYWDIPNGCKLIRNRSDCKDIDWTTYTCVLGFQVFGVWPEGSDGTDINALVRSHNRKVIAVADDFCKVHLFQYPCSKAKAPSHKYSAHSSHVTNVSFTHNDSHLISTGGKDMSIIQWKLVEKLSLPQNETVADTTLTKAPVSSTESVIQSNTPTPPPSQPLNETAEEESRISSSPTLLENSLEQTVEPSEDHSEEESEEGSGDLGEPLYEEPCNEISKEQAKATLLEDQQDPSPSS
EML4-ALK (Homo sapiens), sequence (Q9UM73 19-1620 limits assumed): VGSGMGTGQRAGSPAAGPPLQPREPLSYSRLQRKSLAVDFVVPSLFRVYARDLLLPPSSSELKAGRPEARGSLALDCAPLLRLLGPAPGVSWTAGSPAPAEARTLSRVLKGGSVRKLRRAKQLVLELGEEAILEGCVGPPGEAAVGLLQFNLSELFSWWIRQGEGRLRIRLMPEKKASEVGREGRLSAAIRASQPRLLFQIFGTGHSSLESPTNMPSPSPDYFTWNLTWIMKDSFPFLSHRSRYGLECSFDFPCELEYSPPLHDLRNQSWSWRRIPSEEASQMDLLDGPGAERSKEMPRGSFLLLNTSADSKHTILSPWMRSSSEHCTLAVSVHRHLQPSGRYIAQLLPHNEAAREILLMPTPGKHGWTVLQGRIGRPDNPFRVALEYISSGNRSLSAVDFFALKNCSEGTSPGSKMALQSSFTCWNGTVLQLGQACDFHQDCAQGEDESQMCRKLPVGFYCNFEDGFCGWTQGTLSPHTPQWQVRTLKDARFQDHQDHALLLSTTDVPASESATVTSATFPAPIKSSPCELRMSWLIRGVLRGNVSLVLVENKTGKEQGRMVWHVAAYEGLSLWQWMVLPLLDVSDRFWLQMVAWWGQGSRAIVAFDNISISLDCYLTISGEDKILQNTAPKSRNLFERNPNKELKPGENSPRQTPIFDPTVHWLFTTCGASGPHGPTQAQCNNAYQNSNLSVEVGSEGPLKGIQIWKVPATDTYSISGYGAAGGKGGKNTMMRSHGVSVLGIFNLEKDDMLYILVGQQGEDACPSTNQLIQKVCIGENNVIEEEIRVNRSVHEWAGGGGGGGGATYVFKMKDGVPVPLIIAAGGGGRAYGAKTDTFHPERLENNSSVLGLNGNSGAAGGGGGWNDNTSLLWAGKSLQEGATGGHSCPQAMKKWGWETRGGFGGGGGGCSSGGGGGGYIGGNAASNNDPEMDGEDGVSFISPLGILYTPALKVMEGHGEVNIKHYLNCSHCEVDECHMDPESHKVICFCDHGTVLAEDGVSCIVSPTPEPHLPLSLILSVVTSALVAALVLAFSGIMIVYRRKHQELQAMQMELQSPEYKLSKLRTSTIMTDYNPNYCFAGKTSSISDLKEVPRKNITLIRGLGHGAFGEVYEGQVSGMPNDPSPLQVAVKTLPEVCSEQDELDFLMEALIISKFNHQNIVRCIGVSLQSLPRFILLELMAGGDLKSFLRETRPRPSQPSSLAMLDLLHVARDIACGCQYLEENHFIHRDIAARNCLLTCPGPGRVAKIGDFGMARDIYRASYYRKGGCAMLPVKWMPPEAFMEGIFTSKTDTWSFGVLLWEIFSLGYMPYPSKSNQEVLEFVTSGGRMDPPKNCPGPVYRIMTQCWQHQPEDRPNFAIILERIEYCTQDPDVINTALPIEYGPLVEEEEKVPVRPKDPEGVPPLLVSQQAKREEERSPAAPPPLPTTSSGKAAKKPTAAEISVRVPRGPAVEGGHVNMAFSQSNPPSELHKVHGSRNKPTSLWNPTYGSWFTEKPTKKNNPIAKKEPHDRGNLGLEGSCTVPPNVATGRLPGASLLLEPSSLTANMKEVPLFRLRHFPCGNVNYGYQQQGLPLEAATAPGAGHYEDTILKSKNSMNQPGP
ALK tyrosine kinase receptor (Homo sapiens, UniProt Q9UM73), sequence (Q9UM73 whole entry): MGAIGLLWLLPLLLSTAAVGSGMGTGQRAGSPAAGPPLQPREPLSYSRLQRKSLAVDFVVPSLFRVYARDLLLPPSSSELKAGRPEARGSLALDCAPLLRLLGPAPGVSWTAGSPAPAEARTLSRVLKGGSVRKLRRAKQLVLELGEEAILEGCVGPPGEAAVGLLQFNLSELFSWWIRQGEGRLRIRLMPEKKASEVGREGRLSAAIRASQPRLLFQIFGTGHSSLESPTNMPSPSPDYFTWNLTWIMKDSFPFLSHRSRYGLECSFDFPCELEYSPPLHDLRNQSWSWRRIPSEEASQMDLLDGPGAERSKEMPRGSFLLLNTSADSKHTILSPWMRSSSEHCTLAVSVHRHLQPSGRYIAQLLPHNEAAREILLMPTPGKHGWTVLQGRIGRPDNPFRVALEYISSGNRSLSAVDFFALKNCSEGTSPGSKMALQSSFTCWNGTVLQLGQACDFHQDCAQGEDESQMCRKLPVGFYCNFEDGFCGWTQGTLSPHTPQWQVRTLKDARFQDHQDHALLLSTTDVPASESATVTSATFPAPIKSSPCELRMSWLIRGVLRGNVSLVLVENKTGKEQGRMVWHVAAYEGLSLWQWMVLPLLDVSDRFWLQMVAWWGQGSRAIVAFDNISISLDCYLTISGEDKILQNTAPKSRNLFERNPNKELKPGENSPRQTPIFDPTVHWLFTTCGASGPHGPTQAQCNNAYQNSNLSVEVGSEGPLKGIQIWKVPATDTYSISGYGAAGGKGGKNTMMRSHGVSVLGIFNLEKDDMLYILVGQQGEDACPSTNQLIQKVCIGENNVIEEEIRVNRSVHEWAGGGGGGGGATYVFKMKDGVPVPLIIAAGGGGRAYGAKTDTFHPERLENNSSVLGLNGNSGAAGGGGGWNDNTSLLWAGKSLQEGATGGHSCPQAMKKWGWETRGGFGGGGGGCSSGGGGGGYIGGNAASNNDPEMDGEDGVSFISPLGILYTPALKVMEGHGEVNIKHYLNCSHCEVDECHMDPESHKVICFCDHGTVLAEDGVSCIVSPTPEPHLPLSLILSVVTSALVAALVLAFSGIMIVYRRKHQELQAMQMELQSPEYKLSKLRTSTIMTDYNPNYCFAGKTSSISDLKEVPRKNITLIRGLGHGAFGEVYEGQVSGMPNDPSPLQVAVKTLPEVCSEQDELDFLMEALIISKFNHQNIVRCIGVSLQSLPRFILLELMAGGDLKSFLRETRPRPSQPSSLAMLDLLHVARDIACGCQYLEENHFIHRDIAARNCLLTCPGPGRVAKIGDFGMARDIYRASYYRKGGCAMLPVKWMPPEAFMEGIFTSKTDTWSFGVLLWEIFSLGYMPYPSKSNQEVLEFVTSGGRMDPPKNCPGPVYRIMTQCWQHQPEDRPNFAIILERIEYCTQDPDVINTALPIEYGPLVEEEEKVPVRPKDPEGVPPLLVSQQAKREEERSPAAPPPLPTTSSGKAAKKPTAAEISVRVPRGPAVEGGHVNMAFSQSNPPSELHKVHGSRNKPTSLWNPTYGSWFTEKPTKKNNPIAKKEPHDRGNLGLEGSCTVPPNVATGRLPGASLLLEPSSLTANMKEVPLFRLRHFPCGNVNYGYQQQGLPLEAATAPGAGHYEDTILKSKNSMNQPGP
ALK tyrosine kinase receptor (Homo sapiens, UniProt Q9UM73, L1196M), sequence (Q9UM73 19-1620 L1196M limits assumed): as the sequence (Q9UM73 19-1620 limits assumed) above, with L1178M counted along it

Structure (SMILES)	IC50 [2] [nM]	IC50 [4] [nM]	CC50 [1] [nM]	CC50 [3] [nM]	TGI [5]
COc1cc2c(cc1Nc1ncc(Cl)c(Nc3ccccc3S(=O)(=O)C(C)C)n1)CC/C(=N\N1CCOCC1)C2(C)C	40	40	416	30	
COc1cc2c(cc1Nc1ncc(Cl)c(Nc3ccccc3S(=O)(=O)C(C)C)n1)CC/C(=N\NC(=N)N)C2(C)C	18	37	1580	235	
COc1cc2c(cc1Nc1ncc(Cl)c(Nc3ccccc3S(=O)(=O)C(C)C)n1)CCC(=O)C2(C)C			432		
COc1cc2c(cc1Nc1ncc(Cl)c(Nc3ccccc3S(=O)(=O)C(C)C)n1)CC/C(=N\NC(C)=O)C2(C)C	21	40	314	128	
Cc1cc(Nc2ncc(Cl)c(Nc3ccccc3S(=O)(=O)C(C)C)n2)c(OC(C)C)cc1C1CCNCC1			75	38	Active
COc1cc2c(cc1Nc1ncc(Cl)c(Nc3ccccc3S(=O)(=O)C(C)C)n1)C(C)(C)/C(=N/N1CCOCC1)CC2	122	222	1640	732	
COc1cc2c(cc1Nc1ncc(Cl)c(Nc3ccccc3S(=O)(=O)C(C)C)n1)C(C)(C)C(=O)CC2			2000		
COc1cc2c(cc1Nc1ncc(Cl)c(Nc3ccccc3S(=O)(=O)C(C)C)n1)C(C)(C)/C(=N/N1CCN(C)CC1)CC2	44	200	2600	2830	
COc1cc2c(cc1Nc1ncc(Cl)c(Nc3ccccc3S(=O)(=O)C(C)C)n1)CC/C(=N\NC(N)=O)C2(C)C	29	42	334	117	

Now from value to compound, other results behind:

IC50 [2] [nM]	IC50 [4] [nM]	Structure (SMILES)	CC50 [1] [nM]	CC50 [3] [nM]	TGI [5]
27	94	COc1cc2c(cc1Nc1ncc(Cl)c(Nc3ccccc3S(=O)(=O)C(C)C)n1)C(C)(C)C(N)CC2 (stereo not drawn)	1750	2090	
16	100	COc1cc2c(cc1Nc1ncc(Cl)c(Nc3ccccc3S(=O)(=O)C(C)C)n1)C(C)(C)/C(=N/NC(=N)N)CC2	2090	2400	
424	600	COc1cc2c(cc1Nc1ncc(Cl)c(Nc3ccccc3S(=O)(=O)C(C)C)n1)C(C)(C)/C(=N/O)CC2	1360	1220	
52	201	COc1cc2c(cc1Nc1ncc(Cl)c(Nc3ccccc3S(=O)(=O)C(C)C)n1)C(C)(C)/C(=N/NC(C)=O)CC2	640	146	
34	109	COc1cc2c(cc1Nc1ncc(Cl)c(Nc3ccccc3S(=O)(=O)C(C)C)n1)C(C)(C)C(O)CC2 (stereo not drawn)	1600	726	
6.1	9.9	COc1cc2c(cc1Nc1ncc(Cl)c(Nc3ccccc3S(=O)(=O)C(C)C)n1)CCC(NC(=O)CO)C2(C)C (stereo not drawn)	86	44	
4.2	3.6	COc1cc2c(cc1Nc1ncc(Cl)c(Nc3ccccc3S(=O)(=O)C(C)C)n1)CCC(NC(=O)CN(C)C)C2(C)C (stereo not drawn)	71	39	
21	56	COc1cc2c(cc1Nc1ncc(Cl)c(Nc3ccccc3S(=O)(=O)C(C)C)n1)CCC(O)C2(C)C (stereo not drawn)	299	99	
16	97	COc1cc2c(cc1Nc1ncc(Cl)c(Nc3ccccc3S(=O)(=O)C(C)C)n1)C(C)(C)/C(=N/NC(N)=O)CC2	400	146	
212		COc1cc2c(cc1Nc1ncc(Cl)c(Nc3ccccc3S(=O)(=O)C(C)C)n1)CC/C(=N\O)C2(C)C	1530	276	
